Patent US20100144865A1, “COMPOUND FEED FOR AQUACULTURE” (priority 2007, published 2010)

System: Atlantic salmon (Salmo salar L.) hepatocytes
Format: in vitro ADME
Experimental: The isolated hepatocytes were incubated with 35 nmol, 2.5 μCi of [1-^14C] 18:3 (n-3) as well as non radiolabeled 18:3 (n-3), final concentration 7 μM, in 5 ml of L 15 culture medium without FBS. The radio labeled FA was added to the medium as potassium salt bound to BSA. To each experimental flask (4 radiolabeled and 7 with non-radiolabeled 18:3 (n-3)), DMSO (7.4 μl/5 ml) with sesamin (final concentration 0.05 mM) was added and to each control flasks (4 radiolabeled and 7 with non-radiolabeled 18:3 (n-3)), only DMSO (7.4 μl/5 ml) was added, in another two flasks sesamin but no FA was added. The cells were incubated at 12° C. for 48 h. The radiolabeled experiment flasks with and without sesamin (4 each) were washed and harvested in PBS for further analysis of β-oxidation and radiolabeled lipid classes and radiolabeled cellular fatty acids. The cells in the two flasks with no FA substrate added were denaturated after the incubation and thereafter added radiolabeled substrate in order to be used as a negative control for the ASP measurements and HPLC analyses. In the non-labeled study, control and sesamin flask (4 each) were washed in PBS prior to isolation of mRNA according to the protocol RNeasy® Mini Kit for gene expression analysis and 3 flasks of each control and sesamin were washed and harvested in PSB for fatty acid and sesamin analysis.

## c1cc2c(cc1C1OCC3C(c4ccc5c(c4)OCO5)OCC13)OCO2 (stereo not drawn) [episesamin, 2,6-bis-(3,4-methylenedioxyphenyl)-trans-3,7-dioxabicyclo[3.3.0]octane]
  bioavailability in hepatocytes compared with sesamin: higher
